Measurements reported in paper PMC12845261, “Design, Synthesis, and Biological Evaluation of N-Acyl-Hydrazone-Linked Quinazolinone Derivatives with Antioxidant, Antimicrobial, and Anticancer Potential” (Pharmaceuticals, 2025).
Several values for one entry are separate records, joined by “and”; a condition that tells them apart may be missing. Identical values can stand only once. Like-named read-outs stand apart in the source and are kept apart here.

Legend:
[1] = test system: HT-29 (human colorectal adenocarcinoma); test: Cytotoxicity, MTT assay; assay type: cell-based; settings: 24 h; for Cell viability: at corresponding concentrations (comparison with 5-FU), concentration not named; for IC50: tested range 3.125 to 50 µM; for Cytotoxic effect (in words): 3.125 to 50 µM; for Reduction of cell viability: at 50 µM and 25 µM, compared to the control
Description: (§1) For the cytotoxicity screening of the N-acyl-hydrazone derivatives, three cell lines were employed: HT-29 (human colorectal adenocarcinoma), A431 (human epidermoid carcinoma), and VERO (non-tumoral African green monkey kidney epithelial cells). All cell lines were obtained from the American Type Culture Collection (ATCC, Manassas, VA, USA), and maintained in appropriate culture media as follows: HT-29 and A431 cells were cultured in Dulbecco’s Modified Eagle Medium (DMEM), while VERO cells were cultured in Minimum Essential Medium (MEM). Both culture media were supplemented with 10% fetal bovine serum (FBS) and 1% penicillin-streptomycin mix, to formulate the complete culture medium. All cell lines were incubated at 37 °C in a humidified atmosphere containing 5% CO2. […] For the cytotoxicity screening, cells were seeded into sterile 96-well plates at an initial density of 1 × 10^4 cells/well and allowed to adhere for 24 h. Subsequently, cells were treated with increasing concentrations (3.125 to 50 µM) of compounds 1a–1f and 2 for 24 h. In parallel, 5-fluorouracil (5-FU, Sigma Aldrich, St. Louis, MO, USA) was included as a reference drug and tested over the same concentration range under identical experimental conditions. […] For the experimental control, culture medium was refreshed at the time of treatment application. […] Louis, MO, USA). Briefly, the culture media were discarded from each well and replaced with a fresh solution of MTT (1 mg/mL). Plates were incubated for 4 h at 37 °C, and the resulting formazan crystals were solubilized with isopropanol. The absorbance was measured at 550 nm using the FlexStation III multimodal reader (Molecular Devices, San Jose, CA, USA). All experiments were performed in triplicate and repeated in three independent assays. Cell viability was calculated as a percentage relative to the untreated control using the formula Cell Viability (%) = (Abs treated/Abs control) × 100. Data were processed using GraphPad Prism 6.0 and presented as mean ± standard deviation (SD). Statistical analysis was performed using one-way analysis of variance (ANOVA) followed by Dunnett’s post hoc test for comparison with the untreated control group.

[2] = test system: A431 (human epidermoid carcinoma); test: Cytotoxicity, MTT assay; assay type: cell-based; settings: for viability at 50 µM / IC50: Homo sapiens; for viability at 50 µM: A-431, 50 µM, compared to the control, read-out: Cell viability; for viability at 50 µM / Cytotoxic effect (in words) / Cell viability: 24 h; for Cytotoxic effect (in words): 3.125 to 50 µM; for IC50: A-431, 24 h, tested range 3.125 to 50 µM
Description: as §1

S. aureus ATCC 25923 [3] = test: Microbial adhesion, crystal violet (MICMA); assay type: cell-based; settings: DMSO control 5
Description: (§2) For the evaluation of antimicrobial activity, the following reference strains were used: S. aureus ATCC 25923, E. faecalis ATCC 29212, E. coli ATCC 25922, P. aeruginosa ATCC 27853 and C. albicans ATCC 10231.
(§3) Following quantitative analysis of antimicrobial activity, microbial adhesion was evaluated after methanol fixation and violet crystal staining (0.1%). The absorbance of the adhered biomass colored with violet crystal and resuspended in 33% acetic acid was measured at 490 nm.

E. coli ATCC 25922 = test: Microbial adhesion, crystal violet (MICMA); assay type: cell-based; settings: DMSO control 5
Description: as §2, §3

P. aeruginosa ATCC 27853 [4] = test: Microbial adhesion, crystal violet (MICMA); assay type: cell-based; settings: DMSO control 1.25
Description: as §2, §3

C. albicans ATCC 10231 [5] = test: Microbial adhesion, crystal violet (MICMA); assay type: cell-based; settings: DMSO control 1.25
Description: as §2, §3

E. faecalis ATCC 29212 [6] = test: Microbial adhesion, crystal violet (MICMA); assay type: cell-based; settings: DMSO control 2.5
Description: as §2, §3

[7] = Total antioxidant capacity (TAC), DPPH method; settings: 30 min, 517 nm, compound stock 1 mg/mL in methanol, reference ascorbic acid TAC = 100%
Description: The total antioxidant capacity (TAC) was evaluated using diphenyl-1-picrylhydrazyl free radical (DPPH) method. The TAC value was determined in relation to the antioxidant capacity of the reference (ascorbic acid, TAC = 100%). […] The maximum value was recorded for 1c (~45%), followed by 1f and 1a (~43%), while the minimum for 1e (~19%).
In this study, the TAC values were obtained using the most-known DPPH method, in which the intense violet colour of the free radical solution is decreasing. Stock solutions of compounds 1a–1f and 2 were prepared in absolute methanol at a concentration of 1 mg/mL. A stock solution of 2,2-diphenyl-1-picrylhydrazyl free radical was obtained in the same solvent, at a concentration of 2 × 10^−4 M. To 1.8 mL of DPPH solution was added 0.2 mL of each solution of the compounds 1a–1f and 2 and the mixture was left in the dark for 30 min, followed by measurements of the absorbance at 517 nm. The following equation was used to calculate TAC: TAC%=Abs0 min−Abs30 min/Abs0min·100 where Abs0 min refers to the initial absorbance of the DPPH free radical solution, and Abs 30 min refers to the absorbance of the solution of DPPH and the added compound after 30 min. Ascorbic acid was used as a reference.

S. aureus ATCC 25923 [8] = test: Microbicidal activity (MMC); assay type: cell-based; settings: DMSO control 5
Description: (§4) For the evaluation of antimicrobial activity, the following reference strains were used: S. aureus ATCC 25923, E. faecalis ATCC 29212, E. coli ATCC 25922, P. aeruginosa ATCC 27853 and C. albicans ATCC 10231. To determine the MMCs, 5 μL of culture was taken from each well and distributed on solid medium. The plates were incubated for 20–24 h at 37 °C. The lowest concentration at which no microbial growth was observed was considered MMC.

P. aeruginosa ATCC 27853 [9] = test: Microbicidal activity (MMC); assay type: cell-based; settings: DMSO control 2.5
Description: as §4

C. albicans ATCC 10231 [10] = test: Microbicidal activity (MMC); assay type: cell-based; settings: DMSO control 5
Description: as §4

[11] = Qualitative solubility in solvents; assay type: physicochemical
Description: The 2–5 mL reaction vials were loaded with a magnetic stirrer, 1 mmol of each reactant, acetohydrazide 2 and benzaldehydes, 4–4.5 mL of anhydrous ethanol and 2 drops of glacial acetic acid. Reaction conditions included 5 min of pre-stirring, followed by 40 min of irradiation at 100 °C, with the absorbance level set to “high”. The vials were left overnight in a refrigerator. The precipitates formed were filtered under vacuum, washed with cold ethanol and dried at room temperature. Thin-layer chromatography was performed to analyze and monitor the reaction. The compounds were confirmed by spectroscopic methods (FT-IR, ^1H-NMR and ^13C-NMR spectroscopy and mass spectrometry) and characterized by melting points, solubility and retention factors (Rf).

E. faecalis ATCC 29212 [12] = test: Microbicidal activity (MMC); assay type: cell-based; settings: DMSO control >5
Description: as §4

| Compound | Cell viability [1] | viability at 50 µM [2] [%] | MICMA (S. aureus ATCC 25923 [3]) [mg/mL] | MICMA (E. coli ATCC 25922) [mg/mL] | MICMA (P. aeruginosa ATCC 27853 [4]) [mg/mL] | MICMA (C. albicans ATCC 10231 [5]) [mg/mL] | MICMA (E. faecalis ATCC 29212 [6]) [mg/mL] | TAC (%) [7] | MMC (S. aureus ATCC 25923 [8]) [mg/mL] | MMC (P. aeruginosa ATCC 27853 [9]) [mg/mL] | MMC (C. albicans ATCC 10231 [10]) [mg/mL] | Solubility ([11]; DMF) | Solubility ([11]; DMSO) | Solubility ([11]; acetone) | Solubility ([11]; methanol) | Solubility ([11]; water) | Cytotoxic effect (in words) [1] | Cytotoxic effect (in words) [2] | MMC (E. faecalis ATCC 29212 [12]) [mg/mL] | Reduction of cell viability [1] | other results |
| --- | --- | --- | --- | --- | --- | --- | --- | --- | --- | --- | --- | --- | --- | --- | --- | --- | --- | --- | --- | --- | --- |
| Cc1nc2ccccc2c(=O)n1CC(=O)N/N=C/c1cc(Br)ccc1O [Compound 1a, N′-[(E)-(5-bromo-2-hydroxyphenyl)methylidene]-2-(2-methyl-4-oxoquinazolin-3(4H)-yl)acetohydrazide] | below 50% | ~60 | 2.5 | 1.25 | 0.625 | 0.625 | 1.25 | 42.7% | >5 | 2.5 | 5 | soluble | soluble | soluble | slightly soluble | insoluble |  |  |  |  | viability at 50 µM ([1]; Homo sapiens, 50 µM, relative to untreated control, read-out: Cell viability): ~50%; IC50 ([1]; Homo sapiens, read-out: IC50): ~50 µM |
| COc1ccc(O)c(/C=N/NC(=O)Cn2c(C)nc3ccccc3c2=O)c1 [Compound 1e, N′-[(E)-(2-hydroxy-5-methoxyphenyl)methylidene]-2-(2-methyl-4-oxoquinazolin-3(4H)-yl)acetohydrazide] |  |  | 2.5 | 5 | 1.25 | 2.5 | 5 | 19.3% | 5 | 5 |  | soluble | soluble |  | slightly soluble | insoluble | weaker cytotoxic activity | only mild cytotoxicity | >5 |  | Cell viability ([2]; at all doses (3.125 to 50 µM)): above 70% |
| Cc1nc2ccccc2c(=O)n1CC(=O)N/N=C/c1cc(Br)cc(Br)c1O [Compound 1b, N′-[(E)-(3,5-bromo-2-hydroxyphenyl)methylidene]-2-(2-methyl-4-oxoquinazolin-3(4H)-yl)acetohydrazide] | below 50% | ~50 | 1.25 | 2.5 | 1.25 | 5 | 5 | 38.9% | >5 | 5 | 5 | soluble | soluble | soluble | slightly soluble | insoluble |  |  | >5 | approximately 50% | IC50 [2]: ~50 µM; Solubility ([11]; 2-propanol): slightly soluble |
| Cc1nc2ccccc2c(=O)n1CC(=O)NN [Compound 2, 2-(2-methyl-4-oxoquinazolin-3(4H)-yl)acetohydrazide] |  |  | 2.5 | 1.25 |  |  | >5 | 19.7% | >5 | 5 | 5 |  |  |  |  |  | overall increase in cell viability at all tested concentrations | no cytotoxic activity | >5 |  |  |
| COc1cccc(/C=N/NC(=O)Cn2c(C)nc3ccccc3c2=O)c1O [Compound 1c, N′-[(E)-(2-hydroxy-3-methoxyphenyl)methylidene]-2-(2-methyl-4-oxoquinazolin-3(4H)-yl)acetohydrazide] |  | ~50 | 2.5 | 2.5 | 1.25 | 0.625 | 2.5 | 45.1% | 5 | 2.5 | 5 | soluble | soluble | soluble | slightly soluble | insoluble | potent inhibitory effects at all concentrations tested |  | >5 |  | IC50 [1]: did not produce a viability drop sufficient to determine an IC50 value; IC50 [2]: ~50 µM |
| COc1ccc(/C=N/NC(=O)Cn2c(C)nc3ccccc3c2=O)c(O)c1 [Compound 1d, N′-[(E)-(2-hydroxy-4-methoxyphenyl)methylidene]-2-(2-methyl-4-oxoquinazolin-3(4H)-yl)acetohydrazide] | below 50% |  | 2.5 | 2.5 | 1.25 | 1.25 | 5 | 19.3% and 20.5% | >5 |  | >5 | soluble | soluble | soluble | slightly soluble | insoluble |  |  | >5 | approximately 50% | Cell viability ([2]; at 50 µM and 25 µM): below 60% |
